Glucagon, GH and Insulin data for one compound are collected here from US4133805A, “Cyclic undecapeptides related to somatostatin and intermediates therefor” (American Home Products Corporation, priority 1975, dated 1979).

What all share (format): in vivo, Albino male rats
One assay deals with glucagon. In words: Test Procedure II: arginine-stimulated plasma glucagon in nembutal-treated rats. The method, then: (§1) Albino male rats are arranged in three groups (nine rats/group) and injected i.p. with nembutal at 50 mg/kg. Fifteen minutes after the nembutal injection they are injected s.c. according to group with (a) test compound, typically 500-2000 μg/kg; (b) SRIF 200 μg/kg; or (c) physiological saline. Ten minutes later 0.5 ml. of arginine (300 mg/ml, pH 7.2) is injected into the heart. The rats are decapitated five minutes after receiving the arginine, and the blood is collected into Trasylol-EDTA. Appropriate aliquots are then assayed for growth hormone, glucagon and insulin. […] Comparisons between control and experimental values are statistically evaluated by the analysis of variants method and statistical significance (p) at 0.05 or lower is used as the index of activity.

The subject of another assay is growth hormone. As to the kind of experiment: Test Procedure II: arginine-stimulated plasma growth hormone in nembutal-treated rats. The following applies: p = <0.01. As to the method: as §1
The next assay relates to insulin. As to the kind of experiment: Test Procedure II: arginine-stimulated plasma insulin in nembutal-treated rats. As to the method: as §1

Turning to `C[C@H](N)C(=O)NCC(=O)N[C@H]1CSSC[C@@H](C(=O)O)NC(=O)[C@H](CO)NC(=O)[C@H]([C@@H](C)O)NC(=O)[C@H](Cc2ccccc2)NC(=O)[C@H]([C@@H](C)O)NC(=O)[C@H](CCCCN)NC(=O)[C@H](Cc2c[nH]c3ccccc23)NC(=O)[C@H](Cc2ccccc2)NC(=O)[C@H](Cc2ccccc2)NC(=O)[C@H](CC(N)=O)NC(=O)[C@H](CCCCN)NC1=O` [SRIF, somatostatin], the Glucagon in the assay with glucagon (200 μg/kg s.c., control 62 ± 8, p = <0.01) turned out to be 13 ± 4 pg/mL; in the assay on glucagon (0.2 mg/kg s.c., control 20 ± 1, p = <0.05), 12 ± 3 pg/mL. Moreover, the GH in the assay with growth hormone (10 μg/kg s.c., control 543 ± 86) was 241 ± 15 ng/mL; with growth hormone (20 μg/kg s.c., control 619 ± 103), 232 ± 87 ng/mL; in the assay on growth hormone (0.2 mg/kg s.c., control 287 ± 53) it was 65 ± 16 ng/mL. The Insulin is reported as 117 ± 12 μ units/ml in the assay on insulin (200 μg/kg s.c., control 167 ± 12, p = <0.01) and 111 ± 10 μ units/ml with insulin (0.2 mg/kg s.c., control 151 ± 15, p = <0.05).
